In US20240390340A1 (INCYTE CORPORATION, priority 2023, published 2024):
Like-named read-outs stand apart in the source and are kept apart here.

Tests used:
KRAS G12D = KRAS G12D (Homo sapiens, UniProt P01116, G12D); assay: GDP-GTP exchange assay (bodipy-GDP/GppNHp, SOS1), KRAS G12D; format: biochemical
KRAS G12V = KRAS G12V (Homo sapiens, UniProt P01116, G12V); assay: GDP-GTP exchange assay (bodipy-GDP/GppNHp, SOS1), KRAS G12V; format: biochemical
[1] = bodipy-loaded KRAS G12D 2.5 nM, 4 h pre-incubation, value for the most potent isomer quoted for certain compounds, read-out: G12D (KRAS G12D exchange assay IC50)
[2] = KRAS G12V mutant, value for the most potent isomer quoted for certain compounds, read-out: G12V (KRAS G12V exchange assay IC50)
[3] = Table H, column G12D, for compounds isolated as several atropisomers/diastereoisomers the value for the most potent isomer is quoted, read-out: KRAS G12D exchange assay IC50
[4] = Table H, column G12V, for compounds isolated as several atropisomers/diastereoisomers the value for the most potent isomer is quoted, read-out: KRAS G12V exchange assay IC50

Chain of KRAS G12D (P01116 1-188 isoform P01116-2 G12D): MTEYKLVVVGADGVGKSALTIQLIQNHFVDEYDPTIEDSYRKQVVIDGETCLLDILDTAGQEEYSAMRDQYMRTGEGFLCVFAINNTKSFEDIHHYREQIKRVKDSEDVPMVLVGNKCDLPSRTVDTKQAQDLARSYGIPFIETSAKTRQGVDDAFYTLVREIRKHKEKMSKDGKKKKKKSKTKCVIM
Chain of KRAS G12V (P01116 1-188 isoform P01116-2 G12V): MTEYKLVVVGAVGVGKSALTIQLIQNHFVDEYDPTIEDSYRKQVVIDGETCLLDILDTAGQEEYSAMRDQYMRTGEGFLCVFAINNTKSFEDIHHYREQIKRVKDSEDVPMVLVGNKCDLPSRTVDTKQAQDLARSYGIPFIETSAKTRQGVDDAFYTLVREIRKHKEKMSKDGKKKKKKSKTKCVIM

SMILES	IC50 (KRAS G12D; [1]) [nM]	IC50 (KRAS G12V; [2]) [nM]	IC50 (KRAS G12D; [3]) [nM]	IC50 (KRAS G12V; [4]) [nM]
Cc1nc2c(F)c(-c3cccc(Cl)c3Cl)c(CCC#N)cc2c2c1cc([C@H]1C[C@H](n3cc(C4CC4)nn3)CN1C(=O)C1CC1)n2[C@H]1[C@H]2CN[C@@H]1C2 [Example 179]	≤ 100	≤ 100		
Cc1nnn([C@H]2C[C@H](c3cc4c(C)nc5c(F)c(-c6cccc(Cl)c6Cl)c(CCC#N)cc5c4n3[C@H]3[C@H]4CN[C@@H]3C4)N(C(=O)C3CC3)C2)n1 [Example 398]	≤ 100	≤ 100		
Cc1nc2c(F)c(-c3cccc(Cl)c3Cl)c(CCC#N)cc2c2c1cc([C@H]1C[C@H](Oc3cc(N4CC(C(F)F)C4)ccn3)CN1C(=O)C1CC1)n2[C@H]1[C@H]2CN[C@@H]1C2 [Example 371]	≤ 100	≤ 100		
Cc1nn(CC(F)F)cc1O[C@H]1C[C@H](c2cc3c(C)nc4c(F)c(-c5cccc(Cl)c5Cl)c(CCC#N)cc4c3n2[C@H]2[C@H]3CN[C@@H]2C3)N(C(=O)C2CC2)C1 [Example 408]	≤ 100	≤ 100		
Cc1nc2c(F)c(-c3cccc(Cl)c3Cl)c(CCC#N)cc2c2c1cc([C@H]1C[C@H](Oc3cnn(C(C)C)c3)CN1C(=O)C1CC1)n2[C@H]1[C@H]2CN[C@@H]1C2 [Example 442]	≤ 100	≤ 100		
Cc1nc2c(F)c(-c3cccc(Cl)c3Cl)c(CCC#N)cc2c2c1cc([C@H]1C[C@H](Oc3ccccc3OC(F)F)CN1C(=O)C1CC1)n2[C@H]1[C@H]2CN[C@@H]1C2 [Example 248]	≤ 100	≤ 100		
Cc1c(O[C@H]2C[C@H](c3cc4c(C)nc5c(F)c(-c6cccc(Cl)c6Cl)c(CCC#N)cc5c4n3[C@H]3[C@H]4CN[C@@H]3C4)N(C(=O)C3CC3)C2)ccnc1Cl [Example 295]	≤ 100	≤ 100		
Cc1nc2c(F)c(-c3cccc(Cl)c3Cl)c(CCC#N)cc2c2c1cc([C@H]1C[C@H](Oc3cncnc3)CN1C(=O)C1CC1)n2[C@H]1[C@H]2CN[C@@H]1C2 [Example 136]	≤ 100	≤ 100		
Cc1nc2c(F)c(-c3cccc(Cl)c3Cl)c(CCC#N)cc2c2c1cc([C@H]1C[C@H](n3nc(CC#N)nc3C)CN1C(=O)C1CC1)n2[C@H]1[C@H]2CN[C@@H]1C2 [Example 351]	≤ 100	≤ 100		
Cc1nc2c(F)c(-c3cccc(Cl)c3Cl)c(CCC#N)cc2c2c1cc([C@H]1C[C@H](O[C@@H]3CCOC3)CN1C(=O)C1CC1)n2[C@H]1[C@H]2CN[C@@H]1C2 [Example 30]			≤ 100	≤ 100
COc1ncccc1O[C@H]1C[C@H](c2cc3c(C(C)O)nc4c(F)c(-c5cccc(Cl)c5Cl)c(CCC#N)cc4c3n2[C@H]2[C@H]3CN[C@@H]2C3)N(C(=O)C2CC2)C1 (stereo partly drawn) [Example 221]	≤ 100	≤ 100		
Cc1nc2c(F)c(-c3cccc(Cl)c3Cl)c(CCC#N)cc2c2c1cc([C@H]1C[C@H](OCc3nc4ccccc4s3)CN1C(=O)C1CC1)n2[C@H]1[C@H]2CN[C@@H]1C2 [Example 360]	≤ 100	≤ 100		
Cc1nc2c(F)c(-c3cccc(Cl)c3Cl)c(CCC#N)cc2c2c1cc([C@H]1C[C@H](OCc3ccc(Cl)cc3F)CN1C(=O)C1CC1)n2[C@H]1[C@H]2CN[C@@H]1C2 [Example 155]	≤ 100	≤ 100		
Cc1nc2c(F)c(-c3cccc(Cl)c3Cl)c(CCC#N)cc2c2c1cc([C@H]1C[C@H](Oc3cccc(C4CC4)c3)CN1C(=O)C1CC1)n2[C@H]1[C@H]2CN[C@@H]1C2 [Example 169]	≤ 100	≤ 100		
Cc1ccnc(C)c1CO[C@H]1C[C@H](c2cc3c(C)nc4c(F)c(-c5cccc(Cl)c5Cl)c(CCC#N)cc4c3n2[C@H]2[C@H]3CN[C@@H]2C3)N(C(=O)C2CC2)C1 [Example 125]	≤ 100	≤ 100		
Cc1nc2c(F)c(-c3cccc(Cl)c3Cl)c(CCC#N)cc2c2c1cc([C@H]1C[C@H](Oc3ccn(C)c3C(F)(F)F)CN1C(=O)C1CC1)n2[C@H]1[C@H]2CN[C@@H]1C2 [Example 407]	≤ 100	≤ 100		
Cc1nc2c(F)c(-c3cccc(Cl)c3Cl)c(CCC#N)cc2c2c1cc([C@H]1C[C@H](OCc3ccccn3)CN1C(=O)C1CC1)n2[C@H]1[C@H]2CN[C@@H]1C2 [Example 94]	≤ 100	≤ 100		
Cc1nc2c(F)c(-c3cccc(Cl)c3Cl)c(CCC#N)cc2c2c1cc([C@H]1C[C@H](n3nnc(-c4cccc(OC(F)(F)F)c4)n3)CN1C(=O)C1CC1)n2[C@H]1[C@H]2CN[C@@H]1C2 [Example 436]	≤ 100	100 to 1000		

SMILES	IC50 (KRAS G12D; [1]) [nM]	IC50 (KRAS G12V; [2]) [nM]	IC50 (KRAS G12D; [3]) [nM]	IC50 (KRAS G12V; [4]) [nM]
Cc1nc2c(F)c(-c3cccc(Cl)c3Cl)c(CCC#N)cc2c2c1cc([C@H]1C[C@H](OC3CC3C(=O)NC(C)(C)C)CN1C(=O)C1CC1)n2[C@H]1[C@H]2CN[C@@H]1C2 (stereo partly drawn) [Example 378]	≤ 100	≤ 100		
Cc1nc2c(F)c(-c3cccc(Cl)c3Cl)c(CCC#N)cc2c2c1cc([C@H]1C[C@H](Oc3ccn(C(F)(F)F)n3)CN1C(=O)C1CC1)n2[C@H]1[C@H]2CN[C@@H]1C2 [Example 357]	≤ 100	≤ 100		
Cc1nc2c(F)c(-c3cccc(Cl)c3Cl)c(CCC#N)cc2c2c1cc([C@H]1C[C@H](OCC3CCOCC3)CN1C(=O)C1CC1)n2[C@H]1[C@H]2CN[C@@H]1C2 [Example 413]	≤ 100	≤ 100		
Cc1nc2c(F)c(-c3cccc(Cl)c3Cl)c(CCC#N)cc2c2c1cc([C@H]1C[C@H](Oc3cnn(C(F)(F)F)c3)CN1C(=O)C1CC1)n2[C@H]1[C@H]2CN[C@@H]1C2 [Example 374]	≤ 100	≤ 100		
Cc1cnn([C@H]2C[C@H](c3cc4c(C)nc5c(F)c(-c6cccc(Cl)c6Cl)c(CCC#N)cc5c4n3[C@H]3[C@H]4CN[C@@H]3C4)N(C(=O)C3CC3)C2)c1 [Example 279]	≤ 100	≤ 100		
COc1cccc(O[C@H]2C[C@H](c3cc4c(C)nc5c(F)c(-c6cccc(Cl)c6Cl)c(CCC#N)cc5c4n3[C@H]3C4CNC3C4)N(C(=O)C3CC3)C2)n1 (stereo partly drawn) [Example 199]	≤ 100	≤ 100		
Cc1nc2c(F)c(-c3cccc(Cl)c3Cl)c(CCC#N)cc2c2c1cc([C@H]1C[C@H](OCc3ccn(C(F)(F)F)n3)CN1C(=O)C1(C)CC1)n2[C@H]1[C@H]2CN[C@@H]1C2 [Example 310]	≤ 100	≤ 100		
Cc1nc2c(F)c(-c3cccc(Cl)c3Cl)c(CCC#N)cc2c2c1cc([C@H]1C[C@H](OCc3nnn(C)c3C)CN1C(=O)C1CC1)n2[C@H]1[C@H]2CN[C@@H]1C2 [Example 234]	≤ 100	≤ 100		
Cc1nc2c(F)c(-c3cccc(Cl)c3Cl)c(CCC#N)cc2c2c1cc([C@H]1C[C@H](OCc3nccs3)C(C)(C)N1C(=O)C1CC1)n2[C@H]1[C@H]2CN[C@@H]1C2 [Example 405]	≤ 100	≤ 100		
Cc1nc2c(F)c(-c3cccc(Cl)c3Cl)c(CCC#N)cc2c2c1cc([C@H]1C[C@H](Oc3cccc(F)c3)CN1C(=O)C1CC1)n2[C@H]1[C@H]2CN[C@@H]1C2 [Example 122]	≤ 100	≤ 100		
Cc1nc2c(F)c(-c3cccc(Cl)c3Cl)c(CCC#N)cc2c2c1cc([C@H]1C[C@H](Oc3cccc(C(F)(F)F)n3)CN1C(=O)C1CC1)n2[C@H]1C2CNC1C2 (stereo partly drawn) [Example 142]	≤ 100	≤ 100		
Cc1nc2c(F)c(-c3cccc(Cl)c3Cl)c(CCC#N)cc2c2c1cc([C@H]1C[C@H](Oc3ccc(=O)n(C)c3)CN1C(=O)C1CC1)n2[C@H]1[C@H]2CN[C@@H]1C2 [Example 50]			≤ 100	≤ 100
CC(C)(O)c1ccc(-c2nc3c(F)c(-c4cccc(Cl)c4Cl)c(CCC#N)cc3c3c2cc([C@H]2C[C@H](OCc4c(F)cccc4F)CN2C(=O)C2CC2)n3[C@H]2[C@H]3CN[C@@H]2C3)cn1 [Example 158]	≤ 100	≤ 100		
Cc1nc2c(F)c(-c3cccc(Cl)c3Cl)c(CCC#N)cc2c2c1cc([C@H]1C[C@H](OCC3(C#N)CC3)CN1C(=O)C1CC1)n2[C@H]1[C@H]2CN[C@@H]1C2 [Example 338]	≤ 100	≤ 100		
Cc1nc2c(F)c(-c3cccc(Cl)c3Cl)c(CCC#N)cc2c2c1cc([C@H]1C[C@H](n3cc([C@H](C)O)nn3)CN1C(=O)C1CC1)n2[C@H]1C2CNC1C2 (stereo partly drawn) [Example 184]	≤ 100	≤ 100		
Cc1nc2c(F)c(-c3cccc(Cl)c3Cl)c(CCC#N)cc2c2c1cc([C@H]1C[C@H](Oc3cccnc3)CN1C(=O)C1CC1)n2[C@H]1[C@H]2CN[C@@H]1C2 [Example 114]	≤ 100	≤ 100		
Cc1nc2c(F)c(-c3cccc(Cl)c3Cl)c(CCC#N)cc2c2c1cc([C@H]1C[C@H](OC(C)c3nccs3)CN1C(=O)C1CC1)n2[C@H]1[C@H]2CN[C@@H]1C2 (stereo partly drawn) [Example 363]	≤ 100	≤ 100		
Cc1nc2c(F)c(-c3cccc(Cl)c3Cl)c(CCC#N)cc2c2c1cc([C@H]1C[C@H](n3cc(N4CCOCC4)cn3)CN1C(=O)C1CC1)n2[C@H]1[C@H]2CN[C@@H]1C2 [Example 428]	≤ 100	≤ 100		
